Results as given in ChEMBL document CHEMBL1201862, “PubChem BioAssay data set” (2004).
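Assay format: 96-well plates, 48-hour exposure. The concentration for 50% growth inhibition is given as GI50.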 Activity calls are given as the source filed them. No stated cut-off is given here; in the data, active = GI50 up to about 1.1 µM and inactive = higher.

Key:
Assay in all cases: growth of human tumour cells (NCI), 48 h
[1] = tested on: A549
[2] = tested on: MDA-MB-231
[3] = tested on: HCT-116
[4] = tested on: SW-620
[5] = tested on: SF-539
[6] = tested on: OVCAR-5
[7] = tested on: UACC-257
[8] = tested on: ACHN
[9] = tested on: NCI-H23
[10] = tested on: SK-MEL-2
[11] = tested on: SF-268
[12] = tested on: RPMI-8226
[13] = tested on: HOP-92
[14] = tested on: MOLT-4
[15] = tested on: KM12
[16] = tested on: A498
[17] = tested on: RXF 393
[18] = tested on: DU-145
[19] = tested on: OVCAR-3
[20] = tested on: HOP-62

Measured: GI50

CC1CCCC(CC(=O)O)(CC(=O)O)C1 (configuration not stated)
inactive: [1] > 100 µM | [2] > 100 µM | [3] > 100 µM | [4] > 100 µM | [5] > 100 µM | [6] > 100 µM | [7] > 100 µM | [8] > 100 µM | [9] > 100 µM | [10] > 100 µM | [11] > 100 µM | [12] > 100 µM | [13] > 100 µM | [14] 48.1 µM | [15] > 100 µM | [16] > 100 µM

CCOC(=O)CCC(NC(=O)c1ccc(/N=C/c2nc3cc(C(F)(F)F)ccc3nc2-c2ccccc2)cc1)C(=O)OCC (configuration not stated)
inactive: [1] 25.1 µM | [3] 6.56 µM | [4] > 50 µM | [5] 11.4 µM | [6] > 50 µM | [7] > 50 µM | [8] 11.1 µM | [9] 7.82 µM | [10] 11.3 µM | [11] 8.34 µM | [17] 7.14 µM | [12] > 50 µM | [13] 4.88 µM | [18] 34.1 µM | [14] > 50 µM | [19] 46.6 µM | [15] 18.3 µM | [20] 12.9 µM | [16] 23.4 µM

CC1CCc2sc3nc(S)n(-c4ccccc4)c(=O)c3c2C1 (configuration not stated)
inactive: [1] 81.8 µM | [2] 53.8 µM | [3] > 100 µM | [4] > 100 µM | [6] 86.9 µM | [7] 63.8 µM | [8] 62.5 µM | [9] 92.7 µM | [10] 27.7 µM | [11] 85.7 µM | [17] 35.8 µM | [12] 53 µM | [13] 37.7 µM | [18] 63.4 µM | [14] 41.1 µM | [19] 39.6 µM | [15] 75.2 µM | [20] 36.3 µM

CCOC(=O)c1nnsc1NC(=O)Nc1ccc(Cl)cc1
inactive: [1] 43 µM | [2] 20.7 µM | [3] 25.4 µM | [4] > 100 µM | [6] > 100 µM | [7] > 100 µM | [8] > 100 µM | [9] 32.8 µM | [10] > 100 µM | [11] 57.5 µM | [17] > 100 µM | [12] 44.5 µM | [18] 56.5 µM | [14] > 100 µM | [19] 43.2 µM | [15] 51.6 µM | [20] 68.9 µM

COC(=O)/C(=N\NC(N)=O)C(C(=O)C(=O)Nc1ccccc1OC)c1nc2ccc([N+](=O)[O-])cc2nc1O (configuration not stated)
inactive: [1] > 100 µM | [2] > 100 µM | [3] > 100 µM | [4] > 100 µM | [5] > 100 µM | [6] > 100 µM | [7] > 100 µM | [8] > 100 µM | [9] > 100 µM | [10] > 100 µM | [11] > 100 µM | [17] > 100 µM | [12] > 100 µM | [13] > 100 µM | [14] > 10 µM | [19] > 100 µM | [15] 58.1 µM | [20] > 100 µM | [16] > 100 µM

CN1CSC(=S)N(c2cccc(C(F)(F)F)c2)C1
inactive: [1] 24.3 µM | [3] 34 µM | [4] 31.6 µM | [5] 20.7 µM | [6] 18.6 µM | [7] 22.5 µM | [8] 19 µM | [9] 17.9 µM | [10] 21.3 µM | [11] 23.1 µM | [17] 37.2 µM | [12] 17.5 µM | [13] 18.9 µM | [18] 41.9 µM | [14] 24.7 µM | [19] 30 µM | [15] 22.4 µM | [20] 26.9 µM | [16] 28.3 µM

CCOC(=O)Cc1ccc(Nc2nc3cc(C(F)(F)F)ccc3nc2C(=O)OCC)cc1
inactive: [1] > 100 µM | [3] 81.8 µM | [4] > 100 µM | [5] 14.7 µM | [6] > 100 µM | [7] > 100 µM | [8] 33 µM | [9] 34.6 µM | [10] 61.1 µM | [11] 37.3 µM | [17] 20.5 µM | [13] 38.8 µM | [18] > 100 µM | [14] > 100 µM | [19] > 100 µM | [15] > 100 µM | [20] 35 µM | [16] 32.7 µM

CCOC(=O)c1[nH]cc(C)c1-c1ccn(-c2ccccc2)c1
inactive: [1] 59.6 µM | [3] 42.7 µM | [4] 80.4 µM | [5] > 100 µM | [6] > 100 µM | [7] 35.3 µM | [8] 50.2 µM | [9] 49.5 µM | [10] 61.5 µM | [11] 44.7 µM | [17] 36.8 µM | [13] 21.5 µM | [18] > 100 µM | [14] 18.3 µM | [19] 19.6 µM | [15] 19.6 µM | [20] > 100 µM | [16] > 100 µM

CN1CCN(c2nc3ccccc3nc2C(=O)c2ccc(Cl)cc2)CC1
inactive: [1] 54.2 µM | [3] 35.2 µM | [4] 61 µM | [5] 69.2 µM | [6] > 100 µM | [7] 36.1 µM | [8] > 100 µM | [9] 49.4 µM | [10] 58.5 µM | [11] 46.9 µM | [17] 24.5 µM | [12] 22.2 µM | [13] 26.5 µM | [18] > 100 µM | [14] 65 µM | [19] 44 µM | [15] 35.1 µM | [20] 59.4 µM | [16] 41.7 µM

C1CCNCC1.CN(C)c1ccc(/C=C2/NC(=S)NC2=O)cc1
inactive: [1] 46.8 µM | [2] > 100 µM | [3] 23.3 µM | [4] 37.8 µM | [5] 35.2 µM | [6] > 100 µM | [7] 72.8 µM | [8] 64.7 µM | [9] 61.5 µM | [10] > 100 µM | [11] 82 µM | [17] 37.6 µM | [12] 24.5 µM | [13] 61.8 µM | [18] 62.1 µM | [14] 28.2 µM | [19] 43.9 µM | [20] > 100 µM

COC(=O)C1=C(C)C(=O)[C@]23C(CCCC[C@H]12)C(=O)[C@H](C(=O)OC)C3C (some centres not stated)
inactive: [1] > 100 µM | [2] > 100 µM | [3] > 100 µM | [4] > 100 µM | [5] > 100 µM | [6] > 100 µM | [7] > 100 µM | [8] > 100 µM | [9] > 100 µM | [11] > 100 µM | [13] > 100 µM | [18] > 100 µM | [14] > 100 µM | [19] > 100 µM | [15] > 100 µM | [20] > 100 µM
